Experimental data from paper PMC10321576, “Cyclic peptides target the aromatic cage of a PHD-finger reader domain to modulate epigenetic protein function” (Chemical Science, 2023).
Peptide text beside a SMILES is read from it.

Target: T1, KDM7B PHD-finger (Homo sapiens, UniProt Q9UPP1)
T1 construct: KDM7B 1-66; His-tag (C); made in house
T1 sequence (Q9UPP1 1-66 isoform Q9UPP1-2): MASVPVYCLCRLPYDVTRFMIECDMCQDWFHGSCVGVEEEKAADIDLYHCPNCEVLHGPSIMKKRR
Assay: Protein NMR 1H-15N HSQC chemical shift perturbation
Assay type: binding
Source text: To better elucidate OC9 interactions at a single residue level, we conducted protein NMR studies using isotopically labelled PHD-finger.[48] Comparison of ^1H–^15N HSQC spectra for isotopically labelled apo and OC9-bound protein (Fig. 4a), independently assigned using ^13C,^15N 3D experiments (Fig. S21, NMR ESI ^†), identified 24 out of 66 protein residues with significant (standard deviation, s > 1) chemical shift perturbation (CSP, Δδ) of their backbone amides (Fig. 4b).
(a) ^1H–^15N HSQC of KDM7B PHD-finger in the apo (black) or bound forms with OC9 (purple, 1 : 1) or H3_1–21K4me3 (green, 3 : 1). (b) ^1H and ^15N chemical shift changes for apo vs. + OC9 were combined and weighted to give chemical shift perturbation (CSP) (Δδ) values. Standard deviation (σ) of Δδ are indicated (>1 pink, >2 purple). (c) TALOS+ predicts similar secondary structure elements in apo and OC9-bound solution protein complexes (light grey) to those found in PDB ID 3KV4 (dark grey). […] (e) Shielded ^1H-NMR signals centred around −0.5 ppm belonging to the OC9 V10 γ-methyl groups are observed in some OC9–PHD complexes, but not in apo protein, or complexes with OC9 V10A and OC9 V10DV. The V10^OC9 γ-methyl signals have NOE interactions (black semi-circles) with the W29^PHD indole, which itself is shielded upon binding of OC9 (indicated by ΔδH values).

CC(C)[C@@H]1NC(=O)[C@H](CO)NC(=O)[C@@H]2CCCN2C(=O)[C@H](Cc2ccc(O)cc2)NC(=O)[C@@H]2CCCN2C(=O)[C@H](Cc2c[nH]cn2)NC(=O)[C@H]([C@@H](C)O)NC(=O)[C@H](C)NC(=O)[C@H](Cc2ccc(O)cc2)NC(=O)[C@H](Cc2ccc(O)cc2)NC(=O)CSC[C@@H](C(N)=O)NC(=O)[C@H]([C@@H](C)O)NC(=O)[C@H](CCCNC(=N)N)NC(=O)[C@H](Cc2ccccc2)NC1=O [L3A] (HELM PEPTIDE1{[O=C(C[*:3])[*:2]].Y.Y.A.T.H.P.Y.P.S.V.F.R.T.C.[am]}$PEPTIDE1,PEPTIDE1,1:R3-15:R3$$$V2.0; C-terminus assumed)
CSP Ala2 (residue Ala2 amide 1H-15N, Free PHD vs PHD+peptide): 0.0068
CSP Ala2, OC9 vs OC9 L3A (residue Ala2 amide, PHD+OC9 vs PHD+OC9 L3A): 0.0102
CSP Ala42 (residue Ala42 amide 1H-15N, Free PHD vs PHD+peptide): 0.4335
CSP Ala42, OC9 vs OC9 L3A (residue Ala42 amide, PHD+OC9 vs PHD+OC9 L3A): 0.0214
CSP Ala43 (residue Ala43 amide 1H-15N, Free PHD vs PHD+peptide): 0.4214
CSP Ala43, OC9 vs OC9 L3A (residue Ala43 amide, PHD+OC9 vs PHD+OC9 L3A): 0.0343
CSP Arg11 (residue Arg11 amide 1H-15N, Free PHD vs PHD+peptide): 0.0169
CSP Arg11, OC9 vs OC9 L3A (residue Arg11 amide, PHD+OC9 vs PHD+OC9 L3A): 0.0087
CSP Arg18 (residue Arg18 amide 1H-15N, Free PHD vs PHD+peptide): 0.1337
CSP Arg18, OC9 vs OC9 L3A (residue Arg18 amide, PHD+OC9 vs PHD+OC9 L3A): 0.0146
CSP Arg65 (residue Arg65 amide 1H-15N, Free PHD vs PHD+peptide): 0.0010
CSP Arg65, OC9 vs OC9 L3A (residue Arg65 amide, PHD+OC9 vs PHD+OC9 L3A): 0.0115
CSP Arg66 (residue Arg66 amide 1H-15N, Free PHD vs PHD+peptide): 0.0045
CSP Arg66, OC9 vs OC9 L3A (residue Arg66 amide, PHD+OC9 vs PHD+OC9 L3A): 0.0034
CSP Asn52 (residue Asn52 amide 1H-15N, Free PHD vs PHD+peptide): 0.0619
CSP Asn52, OC9 vs OC9 L3A (residue Asn52 amide, PHD+OC9 vs PHD+OC9 L3A): 0.0178
CSP Asp15 (residue Asp15 amide 1H-15N, Free PHD vs PHD+peptide): 0.2511
CSP Asp15, OC9 vs OC9 L3A (residue Asp15 amide, PHD+OC9 vs PHD+OC9 L3A): 0.0129
CSP Asp24 (residue Asp24 amide 1H-15N, Free PHD vs PHD+peptide): 0.0765
CSP Asp24, OC9 vs OC9 L3A (residue Asp24 amide, PHD+OC9 vs PHD+OC9 L3A): 0.0087
CSP Asp28 (residue Asp28 amide 1H-15N, Free PHD vs PHD+peptide): 0.1850
CSP Asp28, OC9 vs OC9 L3A (residue Asp28 amide, PHD+OC9 vs PHD+OC9 L3A): 0.0277
CSP Asp44 (residue Asp44 amide 1H-15N, Free PHD vs PHD+peptide): 0.1299
CSP Asp44, OC9 vs OC9 L3A (residue Asp44 amide, PHD+OC9 vs PHD+OC9 L3A): 0.0065
CSP Asp46 (residue Asp46 amide 1H-15N, Free PHD vs PHD+peptide): 0.1937
CSP Asp46, OC9 vs OC9 L3A (residue Asp46 amide, PHD+OC9 vs PHD+OC9 L3A): 0.0214
CSP Cys8 (residue Cys8 amide 1H-15N, Free PHD vs PHD+peptide): 0.2230
CSP Cys8, OC9 vs OC9 L3A (residue Cys8 amide, PHD+OC9 vs PHD+OC9 L3A): 0.0115
CSP Cys10 (residue Cys10 amide 1H-15N, Free PHD vs PHD+peptide): 0.0457
CSP Cys10, OC9 vs OC9 L3A (residue Cys10 amide, PHD+OC9 vs PHD+OC9 L3A): 0.0102
CSP Cys23 (residue Cys23 amide 1H-15N, Free PHD vs PHD+peptide): 0.1510
CSP Cys23, OC9 vs OC9 L3A (residue Cys23 amide, PHD+OC9 vs PHD+OC9 L3A): 0.0210
CSP Cys26 (residue Cys26 amide 1H-15N, Free PHD vs PHD+peptide): 0.1657
CSP Cys26, OC9 vs OC9 L3A (residue Cys26 amide, PHD+OC9 vs PHD+OC9 L3A): 0.0115
CSP Cys34 (residue Cys34 amide 1H-15N, Free PHD vs PHD+peptide): 0.0274
CSP Cys34, OC9 vs OC9 L3A (residue Cys34 amide, PHD+OC9 vs PHD+OC9 L3A): 0.0065
CSP Cys50 (residue Cys50 amide 1H-15N, Free PHD vs PHD+peptide): 0.0600
CSP Cys50, OC9 vs OC9 L3A (residue Cys50 amide, PHD+OC9 vs PHD+OC9 L3A): 0.0129
CSP Cys53 (residue Cys53 amide 1H-15N, Free PHD vs PHD+peptide): 0.0573
CSP Cys53, OC9 vs OC9 L3A (residue Cys53 amide, PHD+OC9 vs PHD+OC9 L3A): 0.0065
CSP Gln27 (residue Gln27 amide 1H-15N, Free PHD vs PHD+peptide): 0.1418
CSP Gln27, OC9 vs OC9 L3A (residue Gln27 amide, PHD+OC9 vs PHD+OC9 L3A): 0.0110
CSP Glu22 (residue Glu22 amide 1H-15N, Free PHD vs PHD+peptide): 0.1432
CSP Glu22, OC9 vs OC9 L3A (residue Glu22 amide, PHD+OC9 vs PHD+OC9 L3A): 0.0223
CSP Glu38 (residue Glu38 amide 1H-15N, Free PHD vs PHD+peptide): 0.1564
CSP Glu38, OC9 vs OC9 L3A (residue Glu38 amide, PHD+OC9 vs PHD+OC9 L3A): 0.0388
CSP Glu39 (residue Glu39 amide 1H-15N, Free PHD vs PHD+peptide): 0.2246
CSP Glu39, OC9 vs OC9 L3A (residue Glu39 amide, PHD+OC9 vs PHD+OC9 L3A): 0.0231
CSP Glu40 (residue Glu40 amide 1H-15N, Free PHD vs PHD+peptide): 0.1065
CSP Glu40, OC9 vs OC9 L3A (residue Glu40 amide, PHD+OC9 vs PHD+OC9 L3A): 0.0110
CSP Glu54 (residue Glu54 amide 1H-15N, Free PHD vs PHD+peptide): 0.0548
CSP Glu54, OC9 vs OC9 L3A (residue Glu54 amide, PHD+OC9 vs PHD+OC9 L3A): 0.0034
CSP Gly32 (residue Gly32 amide 1H-15N, Free PHD vs PHD+peptide): 0.1585
CSP Gly32, OC9 vs OC9 L3A (residue Gly32 amide, PHD+OC9 vs PHD+OC9 L3A): 0.0220
CSP Gly36 (residue Gly36 amide 1H-15N, Free PHD vs PHD+peptide): 0.1019
CSP Gly36, OC9 vs OC9 L3A (residue Gly36 amide, PHD+OC9 vs PHD+OC9 L3A): 0.0055
CSP Gly58 (residue Gly58 amide 1H-15N, Free PHD vs PHD+peptide): 0.0491
CSP Gly58, OC9 vs OC9 L3A (residue Gly58 amide, PHD+OC9 vs PHD+OC9 L3A): 0.0055
CSP His31 (residue His31 amide 1H-15N, Free PHD vs PHD+peptide): 0.2104
CSP His31, OC9 vs OC9 L3A (residue His31 amide, PHD+OC9 vs PHD+OC9 L3A): 0.0065
CSP His49 (residue His49 amide 1H-15N, Free PHD vs PHD+peptide): 0.0983
